Test results taken from patent publication US7781443B2, “Tetrahydronaphthyridine derivatives and a process for preparing the same” (Mitsubishi Tanabe Pharma Corporation, priority 2004, dated 2010).

Biological target: T1, CETP (Homo sapiens, UniProt P11597)
T1 construct: from tissue; host or cells: plasma from a healthy volunteer (diluted to 0.64%)
T1 sequence (P11597 18-493): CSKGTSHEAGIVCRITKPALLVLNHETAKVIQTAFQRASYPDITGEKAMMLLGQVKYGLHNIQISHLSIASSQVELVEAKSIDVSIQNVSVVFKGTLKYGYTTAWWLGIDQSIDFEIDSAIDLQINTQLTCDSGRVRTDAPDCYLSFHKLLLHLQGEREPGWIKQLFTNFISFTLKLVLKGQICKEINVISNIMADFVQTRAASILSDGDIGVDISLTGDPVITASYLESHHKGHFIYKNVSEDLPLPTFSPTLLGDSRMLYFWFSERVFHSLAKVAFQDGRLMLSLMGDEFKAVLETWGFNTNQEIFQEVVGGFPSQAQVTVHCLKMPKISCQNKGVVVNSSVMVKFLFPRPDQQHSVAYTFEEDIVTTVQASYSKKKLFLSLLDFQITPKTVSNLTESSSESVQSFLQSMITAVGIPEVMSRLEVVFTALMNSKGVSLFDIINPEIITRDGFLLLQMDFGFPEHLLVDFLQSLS
Experiment: Inhibitory activity against CETP in vitro (fluorescent BODIPY-CE transfer from donor to acceptor microemulsion in diluted human plasma)
Type: biochemical
Conditions: plasma from a healthy volunteer diluted to 0.64%; preincubation with test solution 37° C. 24 hours; incubation with donor/acceptor microemulsion 37° C. 3 hours; fluorescence Ex.550 nm/Em.600 nm
Protocol: The inhibitory activity of the compounds of the present invention against CETP was tested in this experiment.
A solution of 1-Palmitoyl-2-oleoyl-sn-glycero-3-phosphocholine (3.5 mg), cholesteryl oleate (3 mg) and triolein (0.7 mg) in chloroform was mixed and lipid was air-dried under nitrogen gas to remove solvent. Dioxane (0.25 ml) was then added and the mixture was stirred for dissolution. The resultant lipid solution (0.2 ml) was slowly injected under the surface of Tris-saline-EDTA(TSE) buffer solution [10 mM Tris/HCl (pH 7.4), 0.15 M NaCl, 2 mM EDTA] (10 ml) with Hamilton syringe, while sonicating in ice-bath. After 1-hour-sonication in ice-bath, the solution was stored at 4° C.
A solution of egg PC (phosphatidylcholine) (0.33 mg) and BODIPY-CE (0.62 mg) in chloroform was mixed. After removing solvent by air-drying lipid under nitrogen gas, TSE buffer solution (3 ml) was added and the solution was sonicated in ice-bath. This solution was filtered to sterilize through 0.22 μm filter and stored at 4° C.
A test solution was prepared using dimethyl sulfoxide as a solvent. Plasma from a healthy volunteer was diluted to 0.64% with TSE buffer, and to the resultant plasma solution (187 μl) was added a test solution (3 μl) or the solvent alone followed by incubation at 37° C. for 24 hours. After addition of TSE buffer solution (10 μl) containing 5% donor microemulsion and 5% acceptor microemulsion, the mixture was incubated at 37° C. for 3 hours. Before and after the incubation, the fluorescence intensity was measured at Ex.550 nm/Em.600 nm. CETP activity was defined as the difference between the measurements obtained before incubation and after incubation. The decreasing rate of the difference in the sample was defined as the inhibition rate of CETP activity. IC50 for each sample was calculated from the inhibition rate of CETP activity.

SMILES	IC50 [nM]
CCOC(=O)N1c2ccc(OC)nc2[C@@H](N(Cc2cc(C(F)(F)F)cc(C(F)(F)F)c2)c2ncc(OCCS(C)(=O)=O)cn2)C[C@H]1CC [Example 116]	0.11
CCOC(=O)N1c2ccc(OC)nc2[C@@H](N(Cc2cc(C(F)(F)F)cc(C(F)(F)F)c2)c2ncc(N3CCOCC3)cn2)C[C@H]1CC [Example 22]	0.39
CCOC(=O)N1c2ccc(N(C)C)nc2[C@@H](N(Cc2cc(C(F)(F)F)cc(C(F)(F)F)c2)c2ncc(N3CCN(C(C)=O)CC3)cn2)C[C@H]1CC [Example 337, (2R,4S)-4-{[5-(4-acetylpiperazin-1-yl)pyrimidin-2-yl]-[3,5-bis(trifluoromethyl)-benzyl]}amino-6-dimethylamino-2-ethyl-3,4-dihydro-2H-[1,5]naphthyridine-1-carboxylic acid ethyl ester]	0.4
CCOC(=O)N1c2ccc(OC)nc2[C@@H](N(Cc2cc(C(F)(F)F)cc(C(F)(F)F)c2)c2ncc(OCCC(=O)O)cn2)C[C@H]1CC [Example 269, (2R,4S)-4-{[3,5-bis(trifluoromethyl)benzyl]-[5-(2-carboxyethoxy)pyrimidin-2-yl]}amino-2-ethyl-6-methoxy-3,4-dihydro-2H-[1,5]naphthyridine-1-carboxylic acid ethyl ester]	1.9
CCC1CC(N(Cc2cc(C(F)(F)F)cc(C(F)(F)F)c2)c2ncc(CCC(=O)O)cn2)c2nc(OC)ccc2N1C(=O)OCC(F)(F)F (stereo not shown) [Example 356]	0.98
CC[C@@H]1C[C@H](N(Cc2cc(C(F)(F)F)cc(C(F)(F)F)c2)c2ncc(N3CCOCC3)cn2)c2nc(OC)ccc2N1C(=O)OCC(C)(C)C(=O)O [Example 409]	0.83
CCOC(=O)N1c2ccc(OC)nc2[C@@H](N(Cc2cc(C(F)(F)F)cc(C(F)(F)F)c2)c2ccc(N3CCC(C(=O)O)CC3)cn2)C[C@H]1CC [Example 383]	4.6
